US12679849B2, “Macrocyclic compounds as STING agonists” (LUPIN LIMITED, priority 2019, dated 2026)

What was measured:
[1] = molecular target: T1, Human STING (Homo sapiens, UniProt Q86WV6, G230A/H232R/R293Q/R71H); test: Stimulation of human STING signalling in THP1-Blue ISG SEAP reporter cell line; format: cell-based; conditions: THP1-Blue ISG cells, 18-20 hours incubation
T1 construct: using human THP1-Blue™ ISG SEAP based reporter cell line (Invivogen); host or cells: THP1-Blue ISG (human monocytic THP-1 derived SEAP reporter line)
Experimental: Stimulation of Human STING Signalling in THP1 Cell Line
Compounds were tested for their STING activation potential using human THP1-Blue™ ISG SEAP based reporter cell line (Invivogen). Briefly, THP1-Blue ISG cells (100,000 cells/well) in 96 well plate were treated with varying concentrations of test and reference compounds and incubated at 37° C. with 5% CO2 for 18-20 hours. The control untreated cells were also set up. Post incubation, the cell supernatant was tested for SEAP (Secreted Embryonic Alkaline Phosphatase) activity using the QuantiBlue™ substrate reagent (Invivogen). The formation of blue coloured product was quantified by measuring absorbance at wavelength of 620 nm using PheraStar/Tecan reader. The average of duplicate readouts for each data point was plotted in GraphPad prism 6 against the concentration of test or reference compound to calculate EC50 value. The fold of SEAP induction or increase in luminescence at different data points was estimated against the un-stimulated cell control set.

[2] = system: IFNβ; test: Cytokine (IFNβ) secretion in serum samples from CT-26 tumor bearing BALB/c mice; format: in vivo, mouse; conditions: serum of CT-26 tumor-bearing BALB/c mice, 0.5 mg/kg, 3.5 h
Experimental: Quantification of the Cytokine Secretion in Serum Samples from the CT-26 Tumor Bearing BALB/c Mice
CT-26 tumor-bearing animals were administered with test compounds at the dose of 0.5 mg/kg, in a dose-volume of 5 ml/kg. Serum samples were collected at designated time points (3.5 h) and frozen at −80° C. till further estimation. Mouse serum samples were diluted appropriately with dilution buffer before estimation of IFNβ utilizing commercially available kits (VeriKine Mouse IFN Beta ELISA, PBL assay science, Catalog No 42400-2). Raw data values were corrected with the dilution factor and finally expressed in pg/mL.

T1 sequence (Q86WV6 whole entry R71H/G230A/H232R/R293Q): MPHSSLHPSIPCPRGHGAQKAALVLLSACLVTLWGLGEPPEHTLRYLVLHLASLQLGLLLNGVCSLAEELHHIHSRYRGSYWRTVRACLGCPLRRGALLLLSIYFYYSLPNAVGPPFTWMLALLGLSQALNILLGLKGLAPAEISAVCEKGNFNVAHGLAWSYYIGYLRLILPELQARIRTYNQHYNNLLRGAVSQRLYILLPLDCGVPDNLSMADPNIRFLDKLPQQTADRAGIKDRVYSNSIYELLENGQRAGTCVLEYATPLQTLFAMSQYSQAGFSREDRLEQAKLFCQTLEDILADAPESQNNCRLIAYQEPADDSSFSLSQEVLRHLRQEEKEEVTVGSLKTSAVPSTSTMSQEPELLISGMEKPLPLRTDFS

Compound	EC50 [1]	IFNβ secretion [2]
CCn1nc(C)cc1C(=O)Nc1nc2cc(C(N)=O)cc3c2n1C/C=C/Cn1c(NC(=O)c2cc(C)nn2CC)nc2cc(C(N)=O)cc(c21)OCC(C1CCN(C)CC1)CO3 [Compound 9, (E)-1,15-bis(1-ethyl-3-methyl-1H-pyrazole-5-carboxamido)-8-(1-methylpiperidin-4-yl)-8,9,16,19-tetrahydro-7H-6,10-dioxa-2,14,15a,19a-tetraazacyclopentadeca[3,2,1-cd:8,9,10-c′d′]diindene-4,12-dicarboxamide]	11 to 100 nM	
CCn1nc(C)cc1C(=O)Nc1nc2cc(C(N)=O)cc3c2n1C/C=C/Cn1c(NC(=O)c2cc(C)nn2CC)nc2cc(C(N)=O)cc(c21)OCC(CCN1CCOCC1)CO3 [Compound 13, (E)-1,15-bis(1-ethyl-3-methyl-1H-pyrazole-5-carboxamido)-8-(2-morpholinoethyl)-8,9,16,19-tetrahydro-7H-6,10-dioxa-2,14,15a,19a-tetraazacyclopentadeca[3,2,1-cd:8,9,10-c′d′]diindene-4,12-dicarboxamide]	11 to 100 nM	
CCn1nc(C)cc1C(=O)Nc1nc2cc(C(N)=O)cc3c2n1C/C=C/Cn1c(NC(=O)c2cc(C)nn2CC)nc2cc(C(N)=O)cc(c21)OCC(CN1CCOCC1)CO3 [Compound 16, (E)-1,15-bis(1-ethyl-3-methyl-1H-pyrazole-5-carboxamido)-8-(morpholinomethyl)-8,9,16,19-tetrahydro-7H-6,10-dioxa-2,14,15a,19a-tetraazacyclopentadeca[3,2,1-cd:8,9,10-c′d′]diindene-4,12-dicarboxamide]	11 to 100 nM	
CCn1nc(C)cc1C(=O)Nc1nc2cc(C(N)=O)cc3c2n1C/C=C/Cn1c(NC(=O)c2cc(C)nn2CCF)nc2cc(C(N)=O)cc(c21)OCC(N1CCOCC1)CO3 (stereo not drawn) [Compound 17, (E)-15-(1-ethyl-3-methyl-1H-pyrazole-5-carboxamido)-1-(1-(2-fluoroethyl)-3-methyl-1H-pyrazole-5-carboxamido)-8-morpholino-8,9,16,19-tetrahydro-7H-6,10-dioxa-2,14,15a,19a-tetraazacyclopentadeca[3,2,1-cd:8,9,10-c′d′]diindene-4,12-dicarboxamide]	11 to 100 nM	
CCn1nc(C)cc1C(=O)Nc1nc2cc(C(N)=O)cc3c2n1C/C=C/Cn1c(NC(=O)c2cc(C)nn2CC)nc2cc(C(N)=O)cc(c21)OCC(n1ccnc1)CO3 [Compound 19, (E)-1,15-bis(1-ethyl-3-methyl-1H-pyrazole-5-carboxamido)-8-(1H-imidazol-1-yl)-8,9,16,19-tetrahydro-7H-6,10-dioxa-2,14,15a,19a-tetraazacyclopentadeca[3,2,1-cd:8,9,10-c′d′]diindene-4,12-dicarboxamide]	1 to 10 nM	
CCn1nc(C)cc1C(=O)Nc1nc2cc(C(N)=O)cc3c2n1C/C=C/Cn1c(NC(=O)c2cc(C)nn2CC)nc2cc(C(N)=O)cc(c21)O[C@H]1CN[C@@H](CO3)C1 [Compound 20, (33R,35R,E)-12,62-bis(1-ethyl-3-methyl-1H-pyrazole-5-carboxamido)-11H,61H-2,5-dioxa-1,6(7,1)-dibenzo[d]imidazola-3(3,5)-pyrrolidinacyclodecaphan-8-ene-15,65-dicarboxamide]	11 to 100 nM	
CCn1nc(C)cc1C(=O)Nc1nc2cc(C(N)=O)cc3c2n1C/C=C/Cn1c(NC(=O)c2cc(C)nn2CC)nc2cc(C(N)=O)cc(c21)OCC(c1ccccn1)CO3 [Compound 36, (E)-1,15-bis(1-ethyl-3-methyl-1H-pyrazole-5-carboxamido)-8-(pyridin-2-yl)-8,9,16,19-tetrahydro-7H-6,10-dioxa-2,14,15a,19a-tetraazacyclopentadeca[3,2,1-cd:8,9,10-c′d′]diindene-4,12-dicarboxamidexamide]	11 to 100 nM	

Further lines, with some results ahead:

EC50 [1]	Compound	IFNβ secretion [2]
1 to 10 nM	CCn1nc(C)cc1C(=O)Nc1nc2cc(C(N)=O)cc3c2n1C/C=C/Cn1c(NC(=O)c2cc(C)nn2CC)nc2cc(C(N)=O)cc(c21)OCC(N1CC2CCC(C1)O2)CO3 [Compound 1, (E)-8-(8-oxa-3-azabicyclo[3.2.1]octan-3-yl)-1,15-bis(1-ethyl-3-methyl-1H-pyrazole-5-carboxamido)-8,9,16,19-tetrahydro-7H-6,10-dioxa-2,14,15a,19a-tetraazacyclopentadeca[3,2,1-cd:8,9,10-c′d′]diindene-4,12-dicarboxamide]	4344 pg/mL
1 to 10 nM	CCn1nc(C)cc1C(=O)Nc1nc2cc(C(N)=O)cc3c2n1C/C=C/Cn1c(NC(=O)c2cc(C)nn2CC)nc2cc(C(N)=O)cc(c21)OCC(N1CCOCC1)CO3 [Compound 3, (E)-1,15-bis(1-ethyl-3-methyl-1H-pyrazole-5-carboxamido)-8-morpholino-8,9,16,19-tetrahydro-7H-6,10-dioxa-2,14,15a,19a-tetraazacyclopentadeca[3,2,1-cd:8,9,10-c′d′]diindene-4,12-dicarboxamide]	
11 to 100 nM	CCn1nc(C)cc1C(=O)Nc1nc2cc(C(N)=O)cc3c2n1C/C=C/Cn1c(NC(=O)c2cc(C)nn2CC)nc2cc(C(N)=O)cc(c21)OCC(N1CCC(F)(F)CC1)CO3 [Compound 4, (E)-8-(4,4-difluoropiperidin-1-yl)-1,15-bis(1-ethyl-3-methyl-1H-pyrazole-5-carboxamido)-8,9,16,19-tetrahydro-7H-6,10-dioxa-2,14,15a,19a-tetraazacyclopentadeca[3,2,1-cd:8,9,10-c′d′]diindene-4,12-dicarboxamide]	
1 to 10 nM	CCn1nc(C)cc1C(=O)Nc1nc2cc(C(N)=O)cc3c2n1C/C=C/Cn1c(NC(=O)c2cc(C)nn2CC)nc2cc(C(N)=O)cc(c21)OCC(N1C[C@@H](C)O[C@@H](C)C1)CO3 [Compound 5, (E)-8-((2S,6R)-2,6-dimethylmorpholino)-1,15-bis(1-ethyl-3-methyl-1H-pyrazole-5-carboxamido)-8,9,16,19-tetrahydro-7H-6,10-dioxa-2,14,15a,19a-tetraazacyclopentadeca[3,2,1-cd:8,9,10-c′d′]diindene-4,12-dicarboxamide]	
1 to 10 nM	CCn1nc(C)cc1C(=O)Nc1nc2cc(C(N)=O)cc3c2n1C/C=C/Cn1c(NC(=O)c2cc(C)nn2CC)nc2cc(C(N)=O)cc(c21)OCC(N1CC[C@H](OC)C1)CO3 [Compound 6, (S,E)-1,15-bis(1-ethyl-3-methyl-1H-pyrazole-5-carboxamido)-8-(3-methoxypyrrolidin-1-yl)-8,9,16,19-tetrahydro-7H-6,10-dioxa-2,14,15a,19a-tetraazacyclopentadeca[3,2,1-cd:8,9,10-c′d′]diindene-4,12-dicarboxamide]	
1 to 10 nM	CCn1nc(C)cc1C(=O)Nc1nc2cc(C(N)=O)cc3c2n1C/C=C/Cn1c(NC(=O)c2cc(C)nn2CC)nc2cc(C(N)=O)cc(c21)OCC(N1CC[C@H](O)C1)CO3 [Compound 11, (S,E)-1,15-bis(1-ethyl-3-methyl-1H-pyrazole-5-carboxamido)-8-(3-hydroxypyrrolidin-1-yl)-8,9,16,19-tetrahydro-7H-6,10-dioxa-2,14,15a,19a-tetraazacyclopentadeca[3,2,1-cd:8,9,10-c′d′]diindene-4,12-dicarboxamide]	
1 to 10 nM	CCn1nc(C)cc1C(=O)Nc1nc2cc(C(N)=O)cc3c2n1C/C=C/Cn1c(NC(=O)c2cc(C)nn2CC)nc2cc(C(N)=O)cc(c21)OCC(N1CC[C@@H](O)C1)CO3 [Compound 12, (R,E)-1,15-bis(1-ethyl-3-methyl-1H-pyrazole-5-carboxamido)-8-(3-hydroxypyrrolidin-1-yl)-8,9,16,19-tetrahydro-7H-6,10-dioxa-2,14,15a,19a-tetraazacyclopentadeca[3,2,1-cd:8,9,10-c′d′]diindene-4,12-dicarboxamide]	
11 to 100 nM	CCn1nc(C)cc1C(=O)Nc1nc2cc(C(N)=O)cc3c2n1C/C=C/Cn1c(NC(=O)c2cc(C)nn2CC)nc2cc(C(N)=O)cc(c21)OCC(N1CCC(O)CC1)CO3 [Compound 22, (E)-1,15-bis(1-ethyl-3-methyl-1H-pyrazole-5-carboxamido)-8-(4-hydroxypiperidin-1-yl)-8,9,16,19-tetrahydro-7H-6,10-dioxa-2,14,15a,19a-tetraazacyclopentadeca[3,2,1-cd:8,9,10-c′d′]diindene-4,12-dicarboxamide]	
1 to 10 nM	CCn1nc(C)cc1C(=O)Nc1nc2cc(C(N)=O)cc3c2n1C/C=C/Cn1c(NC(=O)c2cc(C)nn2CC)nc2cc(C(N)=O)cc(c21)OCC(N1CCC(C#N)C1)CO3 (stereo not drawn) [Compound 26, (E)-8-(3-cyanopyrrolidin-1-yl)-1,15-bis(1-ethyl-3-methyl-1H-pyrazole-5-carboxamido)-8,9,16,19-tetrahydro-7H-6,10-dioxa-2,14,15a,19a-tetraazacyclopentadeca[3,2,1-cd:8,9,10-c′d′]diindene-4,12-dicarboxamide]	
1 to 10 nM	CCn1nc(C)cc1C(=O)Nc1nc2cc(C(N)=O)cc3c2n1C/C=C/Cn1c(NC(=O)c2cc(C)nn2CC)nc2cc(C(N)=O)cc(c21)OCC(N1CC[C@@H](OC)C1)CO3 [Compound 35, (R,E)-1,15-bis(1-ethyl-3-methyl-1H-pyrazole-5-carboxamido)-8-(3-methoxypyrrolidin-1-yl)-8,9,16,19-tetrahydro-7H-6,10-dioxa-2,14,15a,19a-tetraazacyclopentadeca[3,2,1-cd:8,9,10-c′d′]diindene-4,12-dicarboxamide]	
